In article PMC6314593, “Characterization of novel lignocellulose-degrading enzymes from the porcupine microbiome using synthetic metagenomics” (PLoS ONE, 2019):

Test system: T1, endo-1,4-β-xylanase
T1 construct: gene GH10 xylanase; codon-optimised synthetic gene in pET26b(+); N-terminal PelB leader, C-terminal 6xHis, tags kept; ~81 kDa; E. coli BL21(DE3)
Assay: fluorescence of released CMU (ex […] nm, em […] nm), Lineweaver-Burk
Assay type: biochemical, uncultured bacterium
Conditions: pH 7, 37°C, 50 mM sodium phosphate

A Km of 32 ± 4.72 µM was found for `Cc1cc(=O)oc2cc(O[C@@H]3OC[C@@H](O[C@@H]4OC[C@@H](O)[C@H](O)[C@H]4O)[C@H](O)[C@H]3O)c(Cl)cc12` [CMU-X2, 6-chloro-4-methylumbelliferyl xylobioside] in this work.
